The values that follow come from ChEMBL document CHEMBL6153118, “Structure Optimization of Natural Product Catalpol to Obtain Novel and Potent Analogs against Heart Failure” (J Med Chem, 2025).

For data set [1], the system named is H9c2. Put plainly: Cytoprotective activity against OGD-induced myocardial ischemic injury in rat H9c2 cells assessed as cell viability at 5 uM preincubated for 12 hrs followed by exposure to OGD condition for 3 hrs by CCK8 assay (reference value: 49.23 to 50.05 %). The data set is classed as functional. The settings on record: time 15 hrs, read-out: Activity. (In general: Formazan colour is commonly taken as a measure of viable cells.)

For data set [2], the system named is H9c2. The data set is described as follows: Cytoprotective activity against OGD-induced myocardial ischemic injury in rat H9c2 cells assessed as cell viability at 50 uM preincubated for 12 hrs followed by exposure to OGD condition for 3 hrs by CCK8 assay (reference value: 49.23 to 50.05 %). Format: functional. The settings on record: time 15 hrs, read-out: Activity.

The test system of data set [3] is H9c2. The data set is described as follows: Cytoprotective activity against OGD-induced myocardial ischemic injury in rat H9c2 cells assessed as decrease in ROS level at 5 to 50 uM preincubated for 12 hrs followed by exposure to OGD condition for 3 hrs by DCFH-DA probe based analysis. Format: functional, cell-based. Conditions: dose 5-50 µM, time 15.0 hrs.
In data set [4] the test system is Mus musculus. Put plainly: Improvement in motor ability in ISO-induced heart failure C57BL/6J mouse assessed as increase in grip strength at 5 to 20 mg/kg/day, po for 14 days. Format: functional, organism-based. The settings on record: dose 5-20 mg/kg/day, time 14.0 day.
In data set [5] the test system is H9c2. Put plainly: Inhibition of cardiomyocyte hypertrophy in ISO-treated rat H9c2 cells at 50 uM preincubated for 12 hrs followed by ISO treatment for 36 hrs by FITC-Phalloidin staining based analysis. Format: functional, cell-based. Conditions: time 48.0 hrs.
The test system of data set [6] is H9c2. Put plainly: Inhibition of apoptosis in ISO-treated rat H9c2 cells assessed as increase in Bcl-2 level by Western blot analysis. The data set is classed as functional, cell-based. The settings on record: dose 5-50 µM. (In western blotting, separated proteins are transferred to a membrane and probed.)
In data set [7] the test system is Mus musculus. The data set is described as follows: Inhibition of cardiomyocyte hypertrophy in ISO-induced heart failure C57BL/6J mouse assessed as decrease in PI3K phosphorylation in heart tissue administered orally daily for 14 days by Western blot analysis. Format: functional, organism-based. Conditions: dose 5-20 mg/kg/day, route po, time 14.0 day.
Data set [8] deals with H9c2. Put plainly: Inhibition of apoptosis in ISO-treated rat H9c2 cells assessed as decrease in Bax level by Western blot analysis. Format: functional, cell-based. Conditions: dose 5-50 µM.
Data set [9] concerns Mus musculus. The data set is described as follows: Inhibition of cardiomyocyte hypertrophy in ISO-induced heart failure C57BL/6J mouse assessed as decrease in Bax level in heart tissue at 5 to 20 mg/kg/day, po for 14 days by Western blot analysis. The data set is classed as functional, organism-based. The settings on record: dose 5-20 mg/kg/day, time 14.0 day.
Data set [10] deals with Mus musculus. The data set is described as follows: Inhibition of cardiomyocyte hypertrophy in ISO-induced heart failure C57BL/6J mouse assessed as decrease in ratio of p-PI3K to PI3K levels in heart tissue administered orally daily for 14 days by Western blot analysis. The data set is classed as functional, organism-based. The settings on record: dose 5-20 mg/kg/day, route po, time 14.0 day.

The nature of data set [11]: Metabolic stability in human liver microsomes assessed as intrinsic clearance measured for 5 to 60 mins in presence of NADPH by LC-MS/MS analysis. The data set is classed as ADME, Microsome. The settings on record: time 5-60 min, read-out: CLH. On the technique in general: Liver microsomes are a subcellular fraction often used to study metabolism.
Data set [12] can be described thus: Metabolic stability in mouse liver microsomes assessed as half life measured for 5 to 60 mins in presence of NADPH by LC-MS/MS analysis. Format: ADME, Microsome. The settings on record: time 5-60 min.
The next data set addresses CYP2C19 (Homo sapiens, UniProt P33261). Put plainly: Inhibition of CYP2C19 in human liver microsomes preincubated for 10 mins followed by NADPH addition measured after 10 mins by LC/MS/MS analysis relative to control. Conditions: time 20 min. Format: ADME, Microsome.
In another data set the target is CYP3A4 (Homo sapiens, UniProt P08684). Put plainly: Inhibition of CYP3A4 in human liver microsomes preincubated for 10 mins followed by NADPH addition measured after 10 mins by LC/MS/MS analysis relative to control. Conditions: time 20 min. The data set is classed as ADME, Microsome.
Sequence of CYP3A4 (P08684 whole entry): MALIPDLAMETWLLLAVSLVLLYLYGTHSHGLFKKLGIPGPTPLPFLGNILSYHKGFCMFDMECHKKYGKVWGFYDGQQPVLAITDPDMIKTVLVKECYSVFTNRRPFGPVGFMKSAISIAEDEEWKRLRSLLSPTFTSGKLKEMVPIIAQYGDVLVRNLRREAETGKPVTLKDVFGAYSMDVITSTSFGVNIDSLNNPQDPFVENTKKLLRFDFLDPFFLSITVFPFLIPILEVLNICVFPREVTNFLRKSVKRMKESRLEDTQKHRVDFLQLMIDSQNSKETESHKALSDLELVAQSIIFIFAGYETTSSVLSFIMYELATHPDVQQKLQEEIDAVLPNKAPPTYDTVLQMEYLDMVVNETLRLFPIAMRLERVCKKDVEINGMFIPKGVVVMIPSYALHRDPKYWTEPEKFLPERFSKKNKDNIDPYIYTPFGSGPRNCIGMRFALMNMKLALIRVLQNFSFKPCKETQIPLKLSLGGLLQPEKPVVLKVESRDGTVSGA
A short description of data set [13]: Tmax in C57/6J mouse at 5 mg/kg, iv measured for 24 hrs. The data set is classed as ADME, organism-based. Conditions: in vivo.
Data set [14] in a line: AUC (0 to t) in C57/6J mouse at 5 mg/kg, iv measured for 24 hrs. Conditions: in vivo. The data set is classed as ADME, organism-based.
Data set [15] in a line: Tmax in C57/6J mouse at 20 mg/kg, po measured for 24 hrs. Format: ADME, organism-based. The settings on record: in vivo.
A short description of data set [16]: Cmax in C57/6J mouse at 20 mg/kg, po measured for 24 hrs. Format: ADME, organism-based. Conditions: in vivo.
Data set [17] in a line: Half life in C57/6J mouse at 20 mg/kg, po measured for 24 hrs. The data set is classed as ADME, organism-based. Conditions: in vivo.
The nature of data set [18]: MRT (0 to t) in C57/6J mouse at 20 mg/kg, po measured for 24 hrs. The data set is classed as ADME, organism-based. Conditions: in vivo.
A short description of data set [19]: Toxicity in C57BL/6J mouse assessed as signs of morbidity at 400 mg/kg, po administered as single dose measured for 7 days. The data set is classed as organism-based. Conditions: in vivo, 168 h, time 7 day.

Activity calls are given as the source filed them. The calls are words filed in the database; no cut-off is given here.

Sequence of CYP2C19 (P33261 whole entry): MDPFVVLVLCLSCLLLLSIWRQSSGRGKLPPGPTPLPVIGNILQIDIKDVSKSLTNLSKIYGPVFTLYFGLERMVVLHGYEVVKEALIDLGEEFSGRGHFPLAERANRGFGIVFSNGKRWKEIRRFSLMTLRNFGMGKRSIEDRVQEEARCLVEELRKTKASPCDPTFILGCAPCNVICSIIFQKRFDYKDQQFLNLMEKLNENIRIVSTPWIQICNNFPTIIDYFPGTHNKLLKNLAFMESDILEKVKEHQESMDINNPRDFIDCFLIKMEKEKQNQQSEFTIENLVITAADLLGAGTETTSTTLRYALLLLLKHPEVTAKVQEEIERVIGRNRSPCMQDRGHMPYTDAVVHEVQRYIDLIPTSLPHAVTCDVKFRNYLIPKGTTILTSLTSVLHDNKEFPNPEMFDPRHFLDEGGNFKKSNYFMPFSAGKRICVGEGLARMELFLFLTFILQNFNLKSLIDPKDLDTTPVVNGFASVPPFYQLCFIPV

For orientation: inhibition means the relative decrease from the control value, in per cent. What is called half-life is the time in which the quantity being followed falls by half. By Tmax is commonly meant the time at which the peak concentration occurs. The AUC(0-t) is the area under the concentration-time curve up to a stated or last time point. A word on the Cmax: it is the highest concentration seen after dosing. What is called MRT last is a mean duration of stay, worked out from the concentration-time curve. Turning to `OC[C@H]1O[C@@H](O[C@@H]2OC=C[C@H]3[C@H](O)[C@@H]4O[C@]4(COc4ccc(C(F)(F)F)cc4)[C@@H]23)[C@H](O)[C@@H](O)[C@@H]1O`, the viability at 5 µM in the data set with H9c2 [1] was determined as 64.6%. In addition, the viability at 50 µM in the data set on H9c2 [2] came to 72%. The result in the data set on H9c2 [3] and in the data set on Mus musculus [4] was Active. The inhibition result in the data set with H9c2 [5] and in the data set on Mus musculus [9] was “Active” each time. The inhibition entry in the data set on H9c2 [6], in the data set with Mus musculus [7], in the data set with H9c2 [8] and in the data set on Mus musculus [10] was “Dose-dependent-effect” in each case. Further, in data set [11], the CLint scaled is less than 8.6 mL/min/kg. The half-life in data set [12] was more than 2.42 h; in [17], 1.01 h. In addition, the values for the inhibition at 10 min against CYP2C19 and at CYP3A4 were 10.2% and 0.4%, respectively. Moreover, the Tmax was found to be 4.98 min in data set [13] and 1.42 h in [15]. Further, the area under the curve AUC(0-t) at 24 h in data set [14] turned out to be 1090 ng·h/mL. Further, the concentration in [16] peaked (Cmax) at 505 ng/mL. The same compound came in with an MRT last at 24 h in data set [18] of 2.43 h. Also, in data set [19], the Activity result was “Non-toxic”.
